Entries after “also recorded” stand apart in the source; their conditions may differ.
How the values were obtained:
NSCLC cells = experiment: Intracellular H2O2 with PeroxyOrange-1, NSCLC cells; format: cell-based, human; conditions: ascorbate 15 pmol cell^−1
Experimental: To visualize intracellular H2O2 levels, the selectively sensitive fluorescent probe PeroxyOrange-1 was utilized as previously described with modifications (Dickinson et al., 2010). 1×10^5 cells were plated and grown in their respective media for 48 h. The complete protocol was conducted in the dark with minimal ambient lighting. Cells were washed with PBS and incubated with 10 uM PO-1 in phenol red free RPMI supplemented with HBE growth supplements for 1 h at 37° C. Cells were then washed in PBS and placed back in phenol red free RPMI supplemented with HBE growth supplements. […] At times indicated, cells were placed on ice for the remainder of the protocol, washed, and trypsinized with phenol red free 0.5% trypsin. After 15 min, cells still attached were scraped and all cells were collected in 15 mL conical vials containing PBS+10% FBS to neutralize the trypsin reaction. Cells were spun at 1200 rpm for 5 min at 4° C., resuspended in 300-500 uL PBS and were run on a LSR II Flow Cytometer (BD Biosciences) with λex=561 nm, λem=585/20 nm. The mean fluorescence intensity (MFI) was analyzed (FlowJo™) and corrected for autoflourescence against unlabeled cells. Normalized MFI was calculated by comparing MFI for a given treatment group against control.

H1299 cells = experiment: Clonogenic survival assay, H1299 NSCLC cells; format: cell-based, human
Experimental: Treatment conditions for individual experiments are as described in the figure legends and summarized in the Supplemental Experimental Procedures.
1-2×10^5 cells were plated in 60 mm cell culture dishes and grown in their respective media for 48 h before exposed to experimental conditions. […] For AdGPx1 experiments, cells were supplemented with 50 nM sodium selenite following transduction and throughout clonogenic growth. […] After treatment, cells were washed with PBS and clonogenic assay was completed in their respective media. Briefly, floating and attached cells were collected and total cells per plate were counted. An experimentally derived number of cells were plated into each well of a 6-well cell culture plate in their respective media. For HEL92.1.7 suspension cells, cells were seeded in a top layer of 0.4% (w/v) agarose to allow for quantifiable colony formation. […] Normalized survival fractions were calculated by comparing plating efficiencies of each treatment group against the control group within a given experiment.

OCI-MY5 = experiment: Colony formation on soft agar, OCI-MY5 myeloma cells; format: cell-based, human; conditions: 1 h treatment, colonies after 10-14 days
Excerpt: (§1) A two-layer agar system was used, and colonies were visualized after 10-14 days.

ferritin = conditions: read-out: Km of ascorbate-mediated Fe^+2 release from ferritin; cited from earlier work
OPM2 = experiment: Colony formation on soft agar, OPM2 myeloma cells; format: cell-based, human; conditions: 1 h treatment, colonies after 10-14 days
Excerpt: as §1

HBEpCs = experiment: Cellular labile iron pool (Calcein-AM flow cytometry), HBEpCs; format: cell-based, human; conditions: increasing doses of ascorbate
Experimental: The labile iron pool (LIP) was visualized using the fluorescent dye Calcein-AM as previously described (Epsztejn et al., 1997) with modifications. After labeling, samples were divided into two flow cytometry sample tubes, to which 100 μM 2′,2′-bipyridyl (BIP) was added to one tube and analyzed by flow cytometry. BIP tubes were incubated for at least 15 minutes before analysis to allow for full chelation of intracellular labile iron. The LIP (A.U.)=MFIBIP−MFINoBIP was normalized against the control samples to calculate the relative labile iron pool.
The labile iron pool (LIP) was visualized using the fluorescent dye Calcein-AM as previously described with modifications (Epsztejn et al., 1997). Briefly, after sample treatment, cells were trypsinized, spun at 1,200 rpm for 5 min, and resuspended at approximately 1×10^6 cells mL-1 in 500 nM Calcein-AM in PBS. Samples were incubated for 15 min at 4% O2 in a humidity controlled environment (37° C., 5% CO2). Subsequently, samples were pelleted, washed in PBS, and resuspended in 1 mL PBS before dividing each sample into two flow cytometry sample tubes, to which 100 μM 2′,2′-bipyridyl (BIP) was added to one tube. Samples were kept at room temperature and analyzed on a LSR II Flow Cytometer (BD Biosciences; λex=488 nm, λem=515/20 nm). […]

ARP1 myeloma cells = experiment: ARP1 myeloma tumor-bearing model, IP injection, NOD-SCID mice; format: in vivo; conditions: ascorbate 4 g/kg approximately 15 days, n=3
Experimental: This experiment was repeated in a tumor-bearing mouse model through IP injection of ARP1 myeloma cells, which allows a solid tumor growth when implanted in mice purpose. A total of […] ARP1 MM cells (in 50 μl PBS) per mouse were injected into NOD-SCID mice through IP.

O=C1O[C@H]([C@@H](O)CO)C(O)=C1O [ascorbate, L-ascorbic acid]
steady-state levels of H2O2 (PeroxyOrange-1) (NSCLC cells): significantly increased from baseline | sensitization to carboplatin + IR (clonogenic survival) (H1299 cells; 1 h ascorbate + 5 μM carboplatin + 2 Gy IR vs Carbo+IR alone): significantly increased sensitivity to Carbo+IR; also recorded: selectively sensitized | clonogenic survival / cell killing (H1299 cells; ascorbate alone, 1 h exposure): more clonogenic cell killing in NSCLC cell lines than chemotherapy plus radiation; also recorded: dose-dependent clonogenic cell killing | ascorbate dose giving complete growth inhibition (colony formation) (OCI-MY5): ≥ 10 pmol/cell | Km (ferritin): 1300 µM | ascorbate dose giving complete growth inhibition (colony formation) (OPM2): ≥ 10 pmol/cell | cellular LIP after ascorbate (HBEpCs): not seen | final tumor volume (ARP1 myeloma cells): 50±30 mm3

From patent US10052304B2, “Compositions and methods for cancer therapy” (UNIVERSITY OF IOWA RESEARCH FOUNDATION, priority 2015, dated 2018)
